Reference: PubChem BioAssay (NCI)
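Step 1: Grow cells in 96-well plates. Step 2: Expose to compound for 48 hours at 5 concentrations. Step 3: Interpolate endpoints linearly; if unreached, use highest concentration. TGI: concentration producing complete growth inhibition.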

Legend:
Experiment in all cases: NCI anticancer screen, dose series, 48 h
[1] = tested on: KM12 colon
[2] = tested on: MDA-MB-231 breast
[3] = tested on: NCI/ADR-RES ovarian
[4] = tested on: UO-31 renal
[5] = tested on: PC-3 prostate
[6] = tested on: HT29 colon
[7] = tested on: NCI-H460 lung
[8] = tested on: OVCAR-4 ovarian
[9] = tested on: SW-620 colon
[10] = tested on: SN12C renal
[11] = tested on: OVCAR-3 ovarian
[12] = tested on: HOP-92 NSCLC
[13] = tested on: A549 NSCLC
[14] = tested on: K-562 leukemia
[15] = tested on: NCI-H522 lung
[16] = tested on: MCF7 breast
[17] = tested on: SK-MEL-5 melanoma
[18] = tested on: EKVX NSCLC
[19] = tested on: UACC-62 melanoma
[20] = tested on: NCI-H23 lung
[21] = tested on: MDA-N
[22] = tested on: SF-268 CNS
[23] = tested on: HCT-15 colon
[24] = tested on: HL-60(TB) leukemia
[25] = tested on: T-47D breast
[26] = tested on: ACHN renal
[27] = tested on: RPMI-8226 leukemia
[28] = tested on: TK-10 renal
[29] = tested on: U251 CNS
[30] = tested on: IGROV1 ovarian
[31] = tested on: MOLT-4 leukemia
[32] = tested on: MDA-MB-435
[33] = tested on: UACC-257 melanoma
[34] = tested on: DU-145 prostate
[35] = tested on: BT-549 breast
[36] = tested on: A498 renal
[37] = tested on: OVCAR-8 ovarian
[38] = tested on: SF-539 CNS
[39] = tested on: SK-MEL-28 melanoma
[40] = tested on: SK-OV-3 ovarian
[41] = tested on: HCC-2998 colon
[42] = tested on: OVCAR-5 ovarian
[43] = tested on: CAKI-1 renal
[44] = tested on: CCRF-CEM leukemia
[45] = tested on: SK-MEL-2 melanoma
[46] = tested on: SNB-19 CNS
[47] = tested on: HCT-116 colon
[48] = tested on: MALME-3M melanoma
[49] = tested on: M14 melanoma
[50] = tested on: SF-295 CNS
[51] = tested on: NCI-H226 lung
[52] = tested on: 786-0 renal
[53] = tested on: HS 578T breast
[54] = tested on: COLO 205 colon
[55] = tested on: LOX IMVI melanoma
[56] = tested on: RXF 393 renal
[57] = tested on: HOP-62 NSCLC
[58] = tested on: SNB-75 CNS

CCCCc1ccc(Nc2nc(N)c3[nH]cnc3n2)cc1 showed a TGI [1] of 36.5 µM, a TGI [2] of 39 µM and a TGI [3] of 37.2 µM. It also gave a TGI [4] of 27.1 µM, a TGI [5] of 39.7 µM and a TGI [6] of 28.3 µM. The TGI [7] was 52.2 µM, the TGI [8] was 60.4 µM and the TGI [9] was 63.6 µM. It also gave a TGI [10] of 31.1 µM, a TGI [11] of 51.9 µM and a TGI [12] of 33.3 µM. The TGI [13] was 79.4 µM, the TGI [14] was greater than 100 µM and the TGI [15] was 28.8 µM. For the same molecule, the TGI [16] was 42.4 µM, the TGI [17] was 30.9 µM and the TGI [18] was 45.4 µM. The TGI [19] was 35.3 µM, the TGI [20] was 32.8 µM and the TGI [21] was 32.6 µM. For the same molecule, the TGI [22] was 32.8 µM, the TGI [23] was 66.1 µM and the TGI [24] was 42.5 µM. The TGI [25] was greater than 100 µM, the TGI [26] was 35.5 µM and the TGI [27] was 77.5 µM. For the same molecule, the TGI [28] was 43.2 µM, the TGI [29] was 48 µM and the TGI [30] was 27.9 µM. The TGI [31] was 40.2 µM, the TGI [32] was 40.6 µM and the TGI [33] was 47.4 µM. The TGI [34] was 56.7 µM, the TGI [35] was 47.9 µM and the TGI [36] was 24.2 µM. For the same molecule, the TGI [37] was 31.8 µM, the TGI [38] was 43.4 µM and the TGI [39] was 44.1 µM. It also gave a TGI [40] of 52.7 µM, a TGI [41] of 46.4 µM and a TGI [42] of 73.5 µM. The TGI [43] was 37.7 µM, the TGI [44] was 52.4 µM and the TGI [45] was 57.6 µM. For the same molecule, the TGI [46] was 37.8 µM, the TGI [47] was 32.3 µM and the TGI [48] was 38.1 µM. It also gave a TGI [49] of 88 µM, a TGI [50] of 68.8 µM and a TGI [51] of 53.2 µM. For the same molecule, the TGI [52] was 33.2 µM, the TGI [53] was 41.6 µM and the TGI [54] was 38.1 µM. It also gave a TGI [55] of 33.3 µM.
COC1=CC(=O)c2c(O)c3c(c(O)c2C1=O)CC(C)(O)OC3 (stereo unspecified) gave a TGI [1] greater than 35.8 µM, a TGI [2] greater than 41 µM and a TGI [3] greater than 25.9 µM. The TGI [4] was 15.2 µM, the TGI [5] was 14.9 µM and the TGI [6] was 11.6 µM. The TGI [7] was 6.48 µM, the TGI [8] was 4.51 µM and the TGI [9] was 12.7 µM. It also gave a TGI [10] of 14.2 µM, a TGI [11] of 7.08 µM and a TGI [12] of 10.5 µM. The TGI [13] was 8.8 µM, the TGI [56] was 16.5 µM and the TGI [14] was greater than 45.3 µM. The TGI [15] was 7.24 µM, the TGI [16] was 7.29 µM and the TGI [17] was 2.41 µM. For the same molecule, the TGI [18] was 18.7 µM, the TGI [19] was 7.35 µM and the TGI [20] was 8.42 µM. For the same molecule, the TGI [21] was 3.57 µM, the TGI [22] was greater than 100 µM and the TGI [23] was 9.08 µM. For the same molecule, the TGI [24] was 24.2 µM, the TGI [25] was 8.38 µM and the TGI [26] was greater than 34 µM. For the same molecule, the TGI [27] was greater than 76.8 µM, the TGI [28] was 34.4 µM and the TGI [29] was 10.5 µM. For the same molecule, the TGI [30] was 7.94 µM, the TGI [31] was 8.68 µM and the TGI [32] was 3.05 µM. It also gave a TGI [33] of 4.88 µM, a TGI [34] of 15 µM and a TGI [35] of 18.7 µM. It also gave a TGI [36] of 25.2 µM, a TGI [37] of 8.65 µM and a TGI [38] of 9.66 µM. For the same molecule, the TGI [39] was 31.5 µM, the TGI [40] was 58.9 µM and the TGI [57] was 12.7 µM. For the same molecule, the TGI [41] was 13.9 µM, the TGI [42] was 14.6 µM and the TGI [43] was 16.5 µM. The TGI [44] was 17.4 µM, the TGI [45] was 9.9 µM and the TGI [46] was 13.4 µM. For the same molecule, the TGI [47] was 10.6 µM, the TGI [48] was 2.1 µM and the TGI [49] was 4.53 µM. The TGI [50] was 13.9 µM, the TGI [58] was greater than 67.6 µM and the TGI [51] was 37.2 µM. The TGI [52] was 27.3 µM, the TGI [53] was 35.9 µM and the TGI [54] was 4.76 µM. For the same molecule, the TGI [55] was 12.9 µM.
CN(CCN(C)Cc1ccc(Cl)c(Cl)c1)CCN1CCCC1 showed a TGI [1] greater than 100 µM, a TGI [2] greater than 96.1 µM and a TGI [3] greater than 100 µM. It also gave a TGI [4] of 36 µM, a TGI [5] greater than 100 µM and a TGI [6] greater than 72 µM. The TGI [7] was greater than 100 µM, the TGI [8] was greater than 100 µM and the TGI [9] was greater than 100 µM. The TGI [10] was greater than 100 µM, the TGI [11] was greater than 100 µM and the TGI [12] was 82.1 µM. The TGI [13] was greater than 100 µM, the TGI [56] was 99.9 µM and the TGI [14] was 32.2 µM. The TGI [15] was 46.9 µM, the TGI [16] was greater than 85.1 µM and the TGI [17] was 29.1 µM. The TGI [18] was greater than 100 µM, the TGI [19] was 7.47 µM and the TGI [20] was greater than 100 µM. The TGI [21] was 31.4 µM, the TGI [22] was greater than 100 µM and the TGI [23] was greater than 100 µM. It also gave a TGI [24] greater than 100 µM, a TGI [25] greater than 100 µM and a TGI [26] greater than 100 µM. For the same molecule, the TGI [27] was 32.4 µM, the TGI [28] was greater than 100 µM and the TGI [29] was greater than 100 µM. The TGI [30] was greater than 79.1 µM, the TGI [31] was greater than 72.4 µM and the TGI [32] was 24.3 µM. The TGI [33] was 23.9 µM, the TGI [34] was greater than 100 µM and the TGI [35] was greater than 100 µM. It also gave a TGI [36] of 35.3 µM, a TGI [37] greater than 100 µM and a TGI [38] greater than 59.7 µM. It also gave a TGI [39] of 20.3 µM, a TGI [40] greater than 100 µM and a TGI [57] greater than 100 µM. It also gave a TGI [41] of 32.2 µM, a TGI [42] greater than 100 µM and a TGI [43] greater than 100 µM. For the same molecule, the TGI [44] was 23.6 µM, the TGI [45] was 59.9 µM and the TGI [46] was greater than 100 µM. For the same molecule, the TGI [47] was greater than 57.8 µM, the TGI [48] was 35.8 µM and the TGI [49] was greater than 54.4 µM. The TGI [50] was greater than 88.7 µM, the TGI [58] was greater than 90.5 µM and the TGI [51] was 94.9 µM. For the same molecule, the TGI [52] was 64.6 µM, the TGI [53] was greater than 45 µM and the TGI [54] was 41.2 µM. For the same molecule, the TGI [55] was greater than 58.6 µM.
O=C(OCc1ccccc1[N+](=O)[O-])N1c2ccccc2[C@@]23O[C@]24CCC[C@H]3C#C/C=C\C#C[C@H]14 gave a TGI [1] greater than 100 µM, a TGI [2] greater than 100 µM and a TGI [3] greater than 100 µM. It also gave a TGI [4] greater than 100 µM, a TGI [5] greater than 100 µM and a TGI [6] greater than 100 µM. It also gave a TGI [7] greater than 100 µM, a TGI [8] greater than 100 µM and a TGI [9] greater than 100 µM. For the same molecule, the TGI [10] was 68.2 µM, the TGI [11] was greater than 100 µM and the TGI [12] was greater than 100 µM. It also gave a TGI [13] greater than 100 µM, a TGI [56] greater than 100 µM and a TGI [14] greater than 100 µM. It also gave a TGI [15] greater than 100 µM, a TGI [16] greater than 100 µM and a TGI [17] greater than 100 µM. The TGI [18] was greater than 100 µM, the TGI [19] was greater than 100 µM and the TGI [20] was greater than 100 µM. It also gave a TGI [21] greater than 100 µM, a TGI [22] greater than 100 µM and a TGI [23] greater than 100 µM. For the same molecule, the TGI [24] was 25.9 µM, the TGI [25] was greater than 100 µM and the TGI [26] was greater than 100 µM. The TGI [28] was greater than 100 µM, the TGI [29] was greater than 100 µM and the TGI [30] was greater than 100 µM. The TGI [31] was 8.11 µM, the TGI [32] was greater than 100 µM and the TGI [33] was greater than 100 µM. The TGI [34] was greater than 100 µM, the TGI [35] was greater than 100 µM and the TGI [36] was greater than 100 µM. For the same molecule, the TGI [37] was greater than 100 µM, the TGI [38] was greater than 100 µM and the TGI [39] was greater than 100 µM. For the same molecule, the TGI [40] was greater than 100 µM, the TGI [41] was greater than 100 µM and the TGI [42] was greater than 100 µM. It also gave a TGI [43] greater than 100 µM, a TGI [44] of 66.6 µM and a TGI [45] greater than 100 µM. The TGI [46] was greater than 100 µM, the TGI [47] was greater than 100 µM and the TGI [48] was greater than 100 µM. The TGI [49] was greater than 100 µM, the TGI [50] was greater than 100 µM and the TGI [51] was greater than 100 µM. For the same molecule, the TGI [52] was greater than 100 µM, the TGI [53] was greater than 100 µM and the TGI [54] was greater than 100 µM. The TGI [55] was greater than 100 µM.
